Here are results for three compounds from publication PMC7792806, “Development of Second Generation Activity-Based Chemical Probes for Sirtuins” (Molecules, 2020).

Test [1] has as its system HEK293 cells overexpressing SIRT5. Kind of test: Cellular NAD+ measurement, NAD+ cycling assay. It counts as cell-based, human. As to conditions: 1 mM for 6 h.
Experimental: HEK293 cells overexpressing SIRT5 were subjected to a treatment known to increase the cellular NAD^+ level.
To the cell pellet was added 30 μL of ice-cold 7% perchloric acid; then, the sample was vortexed for 30 s and then sonicated on ice for 5 min. The vortex–sonication cycle was repeated three times. Then, the sample was centrifuged for 3 min at room temperature. Clear supernatant was taken out and neutralized to pH 7 with 3 M NaOH and 1 M phosphate buffer (pH 9). NAD^+ level was then measured using NAD^+ cycling assay as described previously [14].
Test [2] concerns the target T1, SIRT5 (Homo sapiens, UniProt Q9NXA8).
T1 construct: endogenous in cells; host or cells: HEK293
T1 sequence (Q9NXA8 37-310): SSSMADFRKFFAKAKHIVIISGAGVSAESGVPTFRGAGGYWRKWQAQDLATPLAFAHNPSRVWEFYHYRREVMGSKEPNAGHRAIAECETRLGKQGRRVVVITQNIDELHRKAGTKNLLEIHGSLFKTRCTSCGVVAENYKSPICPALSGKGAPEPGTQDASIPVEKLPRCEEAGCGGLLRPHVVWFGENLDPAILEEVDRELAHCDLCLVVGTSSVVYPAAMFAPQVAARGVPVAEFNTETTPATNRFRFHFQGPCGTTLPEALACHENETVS
Kind of test: In-cell labeling of SIRT5 with probe 2B, cellular imaging. Format: cell-based. As to conditions: 1 mM NR for 6 h, then 50 μM probe 2B, 15 min irradiation at 365 nm; compared with control cells.
Experimental: HEK293 cells overexpressing SIRT5 were subjected to a treatment known to increase the cellular NAD^+ level. […] Then, the cells were incubated with 50 μM probe 2B and irradiated at 365 nm for 15 min on ice. Subsequently, the cells were treated with freshly prepared “click” staining mix as described in “Materials and Methods”. After the “click” reaction, cells were incubated with anti-SIRT5 antibody before the images were acquired.
Cells were seeded in 35 mm glass-bottom dishes (MatTek, Ashland, MA, USA) and grew until 70 to 80% confluence. Then, the cells were incubated in the presence or absence of 1 mM NR for 6 h before the medium was discarded. The cells were gently rinsed with fresh growth medium three times. Subsequently, the cells were incubated with 50 μM probe 2B for 1 h before the culture dishes were placed on ice. The cells were irradiated at 365 nm in cold room for 15 min followed by fixation with 4% paraformaldehyde and permeabilization with 0.2% Triton X-100 in PBS. Then, the cells were treated with freshly prepared “click” staining mix (10 μM TAMRA-azide, 1 mM CuSO4 and 1 mM TBTA in 2 mL of deionized water), followed by the addition of 2 mM TCEP. […]
Fluorescence microscopy was carried out on a Leica TCS SP5 confocal microscope (Leica Microsystems, Mannheim, Germany). […] Images were acquired and processed using Leica Application Suite Advanced Fluorescence (LAS AF) software.

Test [3] addresses T2, SIRT2 (Homo sapiens, UniProt Q8IXJ6).
T2 construct: SIRT2 (38-356); made in house
T2 sequence (Q8IXJ6 38-356): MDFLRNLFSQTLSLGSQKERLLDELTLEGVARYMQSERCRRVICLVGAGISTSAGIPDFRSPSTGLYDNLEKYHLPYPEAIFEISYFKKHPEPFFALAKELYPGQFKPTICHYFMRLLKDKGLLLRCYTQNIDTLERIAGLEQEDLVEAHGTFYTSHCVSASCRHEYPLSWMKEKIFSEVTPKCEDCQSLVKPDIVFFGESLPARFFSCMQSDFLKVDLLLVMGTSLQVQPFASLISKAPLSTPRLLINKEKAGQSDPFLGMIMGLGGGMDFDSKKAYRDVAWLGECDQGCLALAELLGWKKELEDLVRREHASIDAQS
Set-up: method as in PMID 29385333. The note with it: UV irradiation; cited from earlier work.

For test [4], the system named is SIRT1. Set-up: method as in PMID 29385333. As to conditions: cited from earlier work.
The test system of test [5] is SIRT1. Nature of the test: Acetylation level of p53 lysine 382 in cells. Format: cell-based. The note with it: Figure S3.
For test [6], the target named is T3, SIRT3 (Homo sapiens, UniProt Q9NTG7).
T3 construct: SIRT3 (102-399); made in house
T3 sequence (Q9NTG7 102-399): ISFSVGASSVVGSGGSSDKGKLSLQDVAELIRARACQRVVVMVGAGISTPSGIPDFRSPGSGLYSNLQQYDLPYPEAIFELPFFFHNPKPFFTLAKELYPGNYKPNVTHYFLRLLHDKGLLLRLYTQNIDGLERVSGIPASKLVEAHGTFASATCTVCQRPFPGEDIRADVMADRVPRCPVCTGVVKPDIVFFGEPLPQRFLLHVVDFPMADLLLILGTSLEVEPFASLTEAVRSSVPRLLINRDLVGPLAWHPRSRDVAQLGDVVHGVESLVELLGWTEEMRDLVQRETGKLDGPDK
Kind of test: Sirtuin inhibition assay (HPLC), SIRT3. Format: biochemical. As to conditions: ratio of IC50s. Here is the method:
(§1) Plasmids of SIRT1 (full length), SIRT2 (38-356), SIRT3 (102-399), and SIRT5 (34-302) were generous gifts from Dr. Hening Lin (Cornell University, Ithaca, NY, USA). SIRT6 was a gift from Cheryl Arrowsmith (Addgene plasmid #28271). The proteins were expressed and purified according to previously published protocols. The identity of the protein was confirmed by tryptic digestion followed by LC-MS/MS analysis performed at the Vermont Genetic Network (VGN) Proteomics Facility. Protein concentrations were determined by Bradford assay (Thermo Fisher Scientific, Rockford, IL, USA).
(§2) A typical reaction contained 500 μM NAD^+ and 500 μM peptide substrate (H3K9Ac for SIRT2, SIRT3 and SIRT6, p53K382Ac for SIRT1 and SIRT5) of varying concentrations of a small molecule probe in 100 mM phosphate buffer pH 7.5. The reactions were initiated by the addition of 10 μM of sirtuin and were incubated at 37 °C before being quenched by 8 μL of 10% TFA. The incubation time was controlled so that the conversion of substrate was less than 15%. The samples were then injected on an HPLC fitted to a Macherey-Nagel Nucleosil C18 column. NAD^+, NAM and AADPR (acetyl-ADP-ribose) peaks were resolved using a gradient of 0 to 20% methanol in 20 mM ammonium acetate. Chromatograms were analyzed at 260 nm. Reactions were quantified by integrating areas of peaks corresponding to NAD^+ and AADPR. Rates were plotted as a function of small molecule probe concentration, and points were fitted to the following equation:ν(%) = ν0(%) − [ν0(%)(10^x)/(10^x + IC50)](1) where ν(%) represents the turnover rate expressed as percent enzymatic activity remaining, and ν0(%) represents the uninhibited turnover rate expressed as an enzymatic activity of 100%. The variable x represents the log[probe] in nanomolar. IC50 values were derived from this equation.

Test [7] has as its target T4, SIRT1 (Homo sapiens, UniProt Q96EB6).
T4 construct: Plasmids of SIRT1 (full length); made in house
T4 sequence (Q96EB6 1-747): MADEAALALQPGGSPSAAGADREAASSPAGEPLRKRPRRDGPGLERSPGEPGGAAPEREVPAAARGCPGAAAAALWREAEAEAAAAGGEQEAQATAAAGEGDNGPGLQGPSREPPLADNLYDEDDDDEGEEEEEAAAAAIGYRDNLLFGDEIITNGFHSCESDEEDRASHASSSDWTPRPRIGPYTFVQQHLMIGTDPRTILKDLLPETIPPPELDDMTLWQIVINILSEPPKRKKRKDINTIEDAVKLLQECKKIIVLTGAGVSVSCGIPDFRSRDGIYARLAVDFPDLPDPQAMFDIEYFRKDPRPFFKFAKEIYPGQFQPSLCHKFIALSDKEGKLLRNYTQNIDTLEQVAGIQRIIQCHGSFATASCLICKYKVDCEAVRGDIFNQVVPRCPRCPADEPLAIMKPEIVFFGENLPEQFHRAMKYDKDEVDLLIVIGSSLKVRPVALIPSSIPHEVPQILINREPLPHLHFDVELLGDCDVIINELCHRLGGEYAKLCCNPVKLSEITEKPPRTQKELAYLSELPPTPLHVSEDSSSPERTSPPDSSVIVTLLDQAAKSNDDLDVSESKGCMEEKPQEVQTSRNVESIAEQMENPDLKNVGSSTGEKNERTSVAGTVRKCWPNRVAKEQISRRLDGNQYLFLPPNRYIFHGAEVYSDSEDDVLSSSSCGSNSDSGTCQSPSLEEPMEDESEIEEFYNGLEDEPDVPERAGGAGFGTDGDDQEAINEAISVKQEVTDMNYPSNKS
Kind of test: Sirtuin inhibition assay (HPLC), SIRT1. Format: biochemical. The note with it: ratio of IC50s. Here is the method: as §1, §2

In test [8] the target is T2, SIRT2. Kind of test: Photoaffinity labeling of recombinant SIRT2, in-gel fluorescence. It counts as biochemical. As for the experimental part:
(§3) The improved inhibitory effects of the 2nd generation ABPs prompted us to evaluate the labeling efficiency of these new probes. We first compared the abilities of benzophenone-based probe 1A and diazirine-based probe 2A to label recombinant SIRT2. The enzyme was incubated with NAD^+ and the probe, and then irradiated at 365 nm for 1 h. Subsequently, the sample was conjugated to TAMRA-azide via Cu(I)-catalyzed “click” reaction. The sample was resolved by SDS-PAGE and detected by in-gel fluorescence scanning.
Figure 3 Comparison of labeling efficiencies of probes 1A and 2A. (A) Concentration-dependent labeling of SIRT2. SIRT2 (10 μM) was incubated with 500 μM NAD^+ and indicated concentrations of probe 1A or 2A in 100 mM phosphate buffer pH 7.5. The samples were incubated at 37 °C for 10 min, subjected to UV irradiation for 1 h, and then “click” conjugated to TAMRA-azide as described in “Materials and Methods”; (B) and (C) Time-dependent labeling of SIRT2 by probe 2A. The labeling reached plateau within 20 min.
A typical labeling experiment was performed as follows: in a 0.7 mL Eppendorf tube, purified recombinant human sirtuin (10 μM) was incubated with NAD^+ (500 μM) and activity-based probe at 37 °C for 10 min. […] Then, destained gel was analyzed with in-gel fluorescence scanning using a Biorad ChemiDoc MP imager (excitation 532 nm, 580 nm cut-off filter and 30 nm band-pass). […]

In test [9] the test system is SIRT1, SIRT2, SIRT3, and SIRT6. Nature of the test: Labeling of individual recombinant sirtuins, in-gel fluorescence. It counts as biochemical, human. The note with it: Figure S1. As for the experimental part: as §3
A typical labeling experiment was performed as follows: in a 0.7 mL Eppendorf tube, purified recombinant human sirtuin (10 μM) was incubated with NAD^+ (500 μM) and activity-based probe at 37 °C for 10 min. The sample was transferred to a clear-bottom 96-well plate, placed on ice, and irradiated at 365 nm with a UV-lamp in a cold room. Subsequently, ingredients of the “click-chemistry” including azide-fluor 545, CuSO4, reducing agent (tris(2-carboxyethyl)phosphine, TCEP) and stabilizing agent (tris[(1-benzyl-1H-1,2,3-triazol-4-yl)methyl]amine, TBTA) were added, and the sample was gently agitated at 250 rpm on a microshaker at room temperature for 30 min. Then, the sample was resolved by SDS-PAGE. […] Then, destained gel was analyzed with in-gel fluorescence scanning using a Biorad ChemiDoc MP imager (excitation 532 nm, 580 nm cut-off filter and 30 nm band-pass). […]

Each structure is given as a SMILES string. Where two headings read alike, the source gives them in different places. Bounds are passed on as bounds.

For `NC(=O)c1ccc[n+]([C@@H]2O[C@H](CO)[C@@H](O)[C@H]2O)c1` [NR, Nicotinamide riboside], the “increase of cellular NAD+ concentration” value in test [1] was found to be 170%. For the same compound, in test [2], the “labeling intensity of SIRT5 by probe 2B in cells” value is on record as “increased labeling intensity”.
Consider `C#CCOc1ccc(C(=O)c2ccc(C(=O)N[C@@H](CCCCNC(C)=S)C(=O)N[C@@H](C)C(=O)N[C@@H](C)C(=O)OC)cc2)cc1` [Probe 1A], for which, in test [3], the “irradiation time to plateau of SIRT2 labeling” value is roughly 60 min. For the same compound, in test [4], the “acetylation level of p53 lysine 382, combined with TSA” value is “enhance the acetylation level of p53 lysine 382”.
Turning to `C#CCCCC1(CCC(=O)N[C@@H](CCCCNC(C)=S)C(=O)N[C@@H](C)C(=O)N[C@@H](C)C(=O)OC)N=N1` [Probe 2A], in test [5], the “acetylation level of p53 lysine 382, combined with TSA” value was “increase the acetylation level of p53 lysine 382”. Also, the “increased inhibition of SIRT3 compared with probe 1A” value in test [6] is recorded as 2 fold. Also, the “increased inhibition of SIRT1 compared with probe 1A” value in [7] is 3 fold. The “labeling intensity of SIRT2” value in test [8] (10 μM SIRT2, 500 μM NAD+, 1 h irradiation at 365 nm, all concentrations examined) is reported as “more intensively than probe 1A”. Besides, the “irradiation time to saturation of SIRT2 labeling” value in test [8] (UV irradiation at 365 nm) was no more than 20 min. Moreover, the “labeling of recombinant sirtuins” value in test [9] is “labeled SIRT1, SIRT2, SIRT3, and SIRT6 to different extents in dose-dependent manners”.
